In patent publication US10195204B2, “Methods of treating hemoglobinopathies” (DUKE UNIVERSITY, priority 2011, dated 2019):

Legend:
[1] = tested on: ERK1/2 phosphorylation in SS RBCs; assay: ERK1/2 phosphorylation in SS RBCs, Western blot (phosphoERK normalized to total ERK); type: cell-based, human
Method: Aliquots of packed RBCs were treated with various reagents to affect cAMP signaling or protein phosphorylation. […] Treated RBCs were then washed 5 times with 4 ml PBS with Ca^2+ and Mg^2+. Normal RBCs were used as controls. Prior to adhesion assays, treated RBCs were labeled with PKH 26 red fluorescent cell linker kit (Sigma), following the manufacturer's instructions.
Treated packed RBCs were lysed with hypotonic buffer (5 mM Na2HPO4+1 mM EDTA+0.1% NaN3, pH 8) containing 2 mM phenylmethylsulphonylfluoride (PMSF, Sigma), phosphatase inhibitor cocktail (Sigma) and protease inhibitor cocktail (Sigma). Protein separation by polyacrylamide gel electrophoresis using equal amounts of total RBC membrane ghost proteins per lane, after correcting total protein measurements for residual hemoglobin content, and Western blot^19 using the appropriate Ab were then performed. Mouse 3T3/A31 fibroblast lysate was used as a ERK1/2 positive control for immunoblots. For total ERK1/2, membranes blotted with anti-phosphoERK Ab were stripped and reexposed to Western blotting using anti-ERK1/2 Ab. Bands were analyzed densitometrically using ImageJ software downloaded from the NIH website. PhosphoERK1/2 data were normalized according to total ERK1/2 and are presented as fold change in ERK phosphorylation.

[2] = tested on: PMN adhesion to non-activated HUVECs; assay: Adhesion to HUVECs of PMNs co-incubated with epinephrine-stimulated SS RBCs; type: cell-based, human; conditions: SS RBCs pre-incubated with inhibitor for 1 hour, then 20 nM epinephrine 1 min
Method: The cells were then washed prior to admixture with fluorescently-labeled native polymorphonuclear cells (PMNs) obtained from healthy donors at a RBC:PMN ratio of 10:1. After co-incubation for 30 minutes at 37° C., cells mixtures were assayed for their ability to adhere to non-activated HUVECs. […] Downregulation of RBC adhesion receptor activity by targeting ERK may not only decrease SS RBC adhesion to the endothelium but also reduce RBC-stimulated leukocyte activation.

[3] = tested on: SS RBC adhesion to TNF-α-activated HUVECs; assay: Flow chamber adhesion of SS RBCs to TNF-α-activated HUVECs; type: cell-based, human; conditions: for effect on SS RBC adhesion to TNF-α-activated HUVECs: SS RBCs treated with MEK inhibitor (10 μM; RDEA119 1 and 10 μM)
Method: Cells were then washed three times with 5 ml PBS with Ca^2+ and Mg^2+. Prior to adhesion assays, washed treated SS RBCs were labeled with PKH 26 red fluorescent cell linker kit (Sigma-Aldrich, St. Louis, Mo.), following the manufacturer's instructions.
Graduated height flow chambers were used to quantify adhesion of RBCs to HUVECs substantially as previously described in detail.^4, 20 In some adhesion studies, slides coated with HUVECs were treated with human recombinant TNF-α at 10 ng/ml for 4 hours. Slides coated with HUVECs treated or not with TNF-α were then washed three times with 20 ml HBSS with 1.26 mM Ca^2+, 0.9 mM Mg^2+ (Gibco, Grand Island, N.Y.) warmed previously to 37° C. and then fit into a variable height flow chamber. The flow chamber was mounted on the stage of an inverted phase contrast microscope (Diaphot, Nikon Inc., Melville, N.Y.) connected to a thermoplate (Tokai Hit Co., Ltd., Japan) set at 37° C. Cells were observed using a video camera (RS photometrics,) attached to the microscope and connected to a Macintosh G4 computer. RBC (3 ml) suspended at 0.2% (vol/vol) in HBSS with Ca^2+, Mg^2+ were infused into the flow chamber and allowed to adhere to the slide for 10 min without flow. Before exposure to flow, a minimum of three fields at each of seven different locations along a line oriented normal to future flow were examined for the total number of fluorescent cells. Fluid flow (HBSS with Ca^2+, Mg^2+) was then started using a calibrated syringe pump. After exposure to flow, the fields were again examined and the number of adherent cells counted. The fraction of adherent cells was presented as (number of cells attached after exposure to flow)/(cells present per field before flow). The wall shear stress was calculated as:
[formula] τw=wall shear stress (dyne/cm^2); Q=volumetric flow rate (cm^3/s); μ is media viscosity, w is the width of the flow channel, and H(x) is the height of the flow chamber as a function of position along the microscope slide. Several investigators have shown that blood flow in small vessels may be continuous, with shear stresses of 1-2 dynes/cm^2, or flow may be intermittent. Our data were obtained using both intermittent and continuous flow conditions.

[4] = tested on: ICAM-4 (LW) phosphorylation; assay: 32P labeling, ICAM-4 immunoprecipitation and detection of phosphorylation in SS RBCs; type: cell-based, human; conditions: SS RBCs preincubated with inhibitor
Method: Cells were then washed 4 times. ICAM-4 protein immunoprecipitation, and total and phospho-ICAM-4 detection were performed as previously described in detail.^4 To further confirm that the immunoprecipitates were specific for ICAM-4, anti-ICAM-4 mAb and the negative control immunoglobulin P3 were used to immunoprecipitate ICAM-4 from non-radiolabeled SS RBCs incubated in the presence or absence of epinephrine. Blots were then immunostained with anti-ICAM-4 mAb.

[5] = tested on: human SS RBC adhesion in inflamed venules and vaso-occlusion; assay: Intravital microscopy in TNF-α-treated nude mice infused with human SS RBCs treated ex vivo with MEK inhibitor; conditions: for percentage of venular length occupied by treated SS RBCs: compared to sham
Excerpt: For some in vivo adhesion studies, packed SS RBCs were fluorescently labeled with the dye Dil (Molecular Probes Inc., Eugene, Oreg.), following the manufacturer's instructions. […] Cell morphology was checked by microscopy.

[6] = tested on: SS RBC membrane ghost phosphopeptides; assay: Label-free quantitative phosphoproteomic analysis of SS RBC membrane ghosts; type: cell-based, human; conditions: recombinant ERK2 added to U0126-treated SS RBC ghosts
Method: (§1) Ghosted RBCs were spun at 14,000 rpm for 15 min at 4° C. to pellet membranes. Membrane pellets were washed with 1 mL 50 mM ammonium bicarbonate (pH 8.0) with vortexing and were then spun at 14,000 rpm for 30 min at 4° C. The supernatant was then removed and 500 μL of 50 mM ammonium bicarbonate with μL 0.2% acid-labile surfactant (ALS-1) in 50 mM ammonium bicarbonate (pH 8.0) was added. Samples were subjected to probe sonication three-times for 5 sec with cooling on ice between and insoluble material was cleared by centrifugation at 14,000 rpm for 30 mins at 4° C. Samples were normalized to approximately 2 μg/μl following a micro-Bradford assay (Pierce Bioscience), and were reduced with a final concentration of 10 mM dithiothreitol at 80° C. for 20 min. Samples were then alkylated with a final concentration of 20 mM iodoacetamide at room temperature for 45 min and trypsin was added to a final ratio of 1-to-50 (w/w) enzyme-to-protein and allowed to digest at 37° C. for 18 hr. To remove ALS-1, samples were acidified to pH 2.0 with neat TFA, incubated at 60° C. for 2 hrs and spun at 14,000 rpm to remove hydrolyzed ALS-1. Samples were either subjected directly to LC-MS analysis or subjected to a TiO2 based phosphopeptide enriched protocol.
(§2) To enrich for phosphorylated peptides prior to LC-MS analysis, either 1,125 μg and 970 μg of total digested protein from RBC ghosts co-incubated with recombinant active ERK2 experiments and experiments using epinephrine-treated cells, respectively, were brought to near dryness using vacuum centrifugation and then resuspended in 200 μL of 80% acetonitrile, 1% TFA, 50 mg/ml MassPrep Enhancer (pH 2.5) (Waters Corp. Milford, Mass.). Samples were loaded onto an in-house packed TiO2 spin column (Protea Biosciences) with a 562 μg or 485 μg binding capacity for active ERK2 treated or epinephrine treated experiments, respectively. Samples were washed twice with 200 μL 80% acetonitrile, 1% TFA, 50 mg/ml MassPrep Enhancer (pH 2.5) followed by two washes with 200 μL 80% acetonitrile, 1% TFA (pH 2.5). Retained peptides were eluted twice with 100 μL 20% acetonitrile, 5% aqueous ammonia (pH 10.0), acidified to pH 3 with neat formic acid and then brought to dryness using vacuum centrifugation. Prior to LC-MS analysis, each sample was resuspended in 20 μL 2% acetonitrile, 0.1% TFA, 25 mM citric acid (pH 2.5).
Chromatographic separation of phosphopeptide enriched or non-enriched samples was performed on a Waters NanoAquity UPLC equipped with a 1.7 μm BEH130 C1875 μm I.D.×250 mm reversed-phase column. The mobile phase consisted of (A) 0.1% formic acid in water and (B) 0.1% formic acid in acetonitrile. Five μL injections of each sample were trapped for 5 min on a 5 μm Symmetry C18 180 μm I.D.×20 mm column at 20 μl/min in 99.9% A. The analytical column was then switched in-line and the mobile phase was held for 5 min at 5% B before applying a linear elution gradient of 5% B to 40% B or 5% B to 30% B over 90 min at 300 nL/min for ERK2 treated experiments or epinephrine treated experiments, respectively. The analytical column was connected to fused silica PicoTip emitter (New Objective, Cambridge, Mass.) with a 10 μm tip orifice and coupled to the mass spectrometer through an electrospray interface.
(§3) MS data from each phosphopeptide enriched sample was acquired on a Thermo LTQ-Orbitrap XL mass spectrometer operating in positive-ion mode with an electrospray voltage of 2.0 kV with real-time lockmass correction on ambiant polycyclodimethylsiloxane (m/z 445.120025) enabled. The instrument was set to acquire a precursor MS scan from m/z 400-2000 with r=60,000 at m/z 400 and a target AGC setting of 1e6 ions. Each sample was analyzed four-times, one of which was used for additional qualitative identifications only and was not included in the quantitative analysis, with product ions above a threshold of 500 counts were acquired for the top 5 most intense ions in the linear ion trap. […]

[7] = tested on: AA RBC membrane ghost phosphopeptides; assay: Label-free quantitative phosphoproteomic analysis of normal (AA) RBC membrane ghosts; type: cell-based, human
Method: as §1
as §2, with “Prior to LC-MS analysis, each sample was resuspended in 20 μL 2% acetonitrile, 0.1% TFA, 25 mM citric acid (pH 2.5).” left out
as §3, with “The instrument was set to acquire a precursor MS scan from m/z 400-2000 with r=60,000 at m/z 400 and a target AGC setting of 1e6 ions.” left out

[8] = SS RBCs treated ex vivo with 10 μM inhibitor for 1 hour, n=5

Question: Which “increase in basal phosphorylation of ERK1/2” value ([1]; SS RBCs, 1 μg/ml PTx alone) does the source give for Pertussis toxin [PTx] here?
Answer: 2.04±0.1 fold

Question: And the “increase in basal phosphorylation of ERK1/2” value ([1]; SS RBCs, 2 μg/ml PTx alone)?
Answer: 2.53±0.11 fold

Question: With Cn1cnc2c(F)c(Nc3ccc(Br)cc3Cl)c(C(=O)NOCCO)cc21 [AZD6244] as the molecule, how does the “ability of epinephrine-activated SS RBCs to promote neutrophil (PMN) adhesion to HUVECs” value (“ability of epinephrine-activated SS RBCs” for short) [2] read?
Answer: significantly decreased

Question: What about the “effect on SS RBC adhesion to TNF-α-activated HUVECs” value (shortened to “effect on SS RBC adhesion”) [3] of the same molecule?
Answer: significantly abolished

Question: What does the source list for “14-22 amide: PKA-specific inhibitor (PKAI)”?
Answer: effect on epinephrine-induced ERK1/2 phosphorylation ([1]; SS RBCs pre-incubated with inhibitor, then 20 nM epinephrine 1 min): completely blocked; effect on basal ERK phosphorylation ([1]; SS RBCs, 30 nM): did not significantly decrease; effect on combined effect of epinephrine and SPI on ICAM-4 phosphorylation [4]: significantly decreased

Question: For COc1cc(F)c(F)c(Nc2ccc(I)cc2F)c1NS(=O)(=O)C1(C[C@H](O)CO)CC1 [RDEA119], which “human SS RBC adhesion in inflamed venules” value [5, 8] is on record?
Answer: dramatically decreased

Question: And the vessel obstruction [5, 8]?
Answer: prevented vessel obstruction

Question: And the “percentage of venular length occupied by treated SS RBCs” value ([5]; vessels 25 μm in diameter)?
Answer: significantly decreased

Question: And the “percentage of venular length occupied by treated SS RBCs” value ([5]; vessels with a diameter >25 μm)?
Answer: significantly decreased

Question: What about the “ability of epinephrine-activated SS RBCs” value [2] of the same molecule?
Answer: significantly decreased

Question: And the “effect on SS RBC adhesion” value [3]?
Answer: significantly abolished

Question: What does the source list for “ERK2: commercial recombinant active human ERK2 (Sigma) added to RBC membrane ghosts”?
Answer: change of Ser540/Ser542 doubly phosphorylated peptide within protein 4.1 [6]: +1.7 fold; increase of Ser540/Ser542 doubly phosphorylated peptide within protein 4.1 ([7]; recombinant ERK2 added to U0126-treated AA RBC ghosts): 1.7 fold; increase of Ser540/Ser542 doubly phosphorylated peptide within protein 4.1 ([7]; recombinant ERK2 added to untreated AA RBC ghosts): 2.1 fold

Question: COc1c(C=O)c(O)cc2c1C(=O)c1ccccc1C2=O [Damnacanthal] was tested. Which “effect on PTx-induced ERK phosphorylation” value ([1]; SS RBCs, 2 μg/ml PTx) did it give?
Answer: did not abrogate

Question: With TNF-α as the molecule, how does the “increase in SS RBC adhesion vs non-activated HUVECs” value ([3]; HUVECs treated with TNF-α, shear stress 2 dynes/cm^2, intermittent flow) read?
Answer: 2.6 fold

Question: For CC(=O)Nc1cccc(-n2c(=O)n(C3CC3)c(=O)c3c(Nc4ccc(I)cc4F)n(C)c(=O)c(C)c32)c1 [GSK1120212], which “ability of epinephrine-activated SS RBCs” value [2] is on record?
Answer: significantly decreased

Question: What about the “effect on SS RBC adhesion” value [3] of the same molecule?
Answer: significantly abolished
